Measured values: patent US6140362A, “Method for inhibiting the growth of mammalian cells” (Rohm and Haas Company, priority 1997, dated 2000)
Read-outs that look alike come from different tables or passages of the source.

Experiments:
[1] = test system: mouse lymphoma cell line L5178Y; test: Growth inhibition of mouse lymphoma cells (L5178Y), 48 h; format: cell-based; conditions: for inhibition at 2 µM: 2 micromolar; for inhibition at 4 µM: 4 micromolar; for inhibition at 10 µM: read-out: Inhibition of growth; for inhibition at 20 µM: 20 micromolar
Procedure: Effects of compounds on growth of mouse lymphoma cell line L5178Y, were determined as follows. Cells were grown in Fischer's medium (obtained from Life Technologies, Inc., Gaithersburg, Md.) containing 0.24 grams per liter (g/l) sodium pyruvate, 1.12 g/l surfactant (Pluronic F-68, from BASF Corporation, Parsippany, N.J.), and 10% by volume (10% v/v) heat-inactivated horse serum (obtained from Life Technologies, Inc) at 37° C. To 30 ml aliquots of cell suspension (2×10^4 cells per milliliter (mL)) in exponential growth phase were added test compounds dissolved in dimethylsulfoxide (DMSO) at various concentrations such that the final DMSO concentration in the mixtures was 0.25%. Tubes were gassed with 5% CO2 then incubated on a roller drum apparatus. After 48 hours the cells were treated with 0.1% trypsin (Life Technologies, Inc.,) for 10 minutes and counted in a Coulter Counter equipped with a 140 micrometer (μM) aperture. Percent inhibition of growth was calculated by comparing the number of cells in assays containing test compound with the number of cells in controls lacking the test compound.

[2] = test system: Leukemia (SR); test: Growth inhibition of human tumor cell lines: Leukemia (SR); format: cell-based; conditions: cell line A = Leukemia (SR), NCI testing
Procedure: (§1) Selected compounds were evaluated by the National Cancer Institute, Bethesda, Md. against 60 human tumor cell lines according to procedures described in Principles and Practices of Oncology, volume 3, issue number 10, pp. 1-12. Results of the testing against representative cell lines including the test compound number, and the GI50 values (μM) are set forth in Table 3. The GI50 value is the concentration required to inhibit cell growth by 50% as compared to untreated control cultures.

[3] = test system: Nonsmall cell lung cancer (NCIH522); test: Growth inhibition of human tumor cell lines: Nonsmall cell lung cancer (NCIH522); format: cell-based; conditions: NCI-H522, cell line B = Nonsmall cell lung cancer (NCIH522), NCI testing
Procedure: as §1

[4] = test system: Small cell lung cancer (DMS 114); test: Growth inhibition of human tumor cell lines: Small cell lung cancer (DMS 114); format: cell-based; conditions: cell line C = Small cell lung cancer (DMS 114), NCI testing
Procedure: as §1

[5] = test system: Colon cancer (HCT116); test: Growth inhibition of human tumor cell lines: Colon cancer (HCT116); format: cell-based; conditions: HCT-116, cell line D = Colon cancer (HCT116), NCI testing
Procedure: as §1

[6] = test system: CNS cancer (SF539); test: Growth inhibition of human tumor cell lines: CNS cancer (SF539); format: cell-based; conditions: SF-539, cell line E = CNS cancer (SF539), NCI testing
Procedure: as §1

[7] = test system: Melanoma (SKMEL-2); test: Growth inhibition of human tumor cell lines: Melanoma (SKMEL-2); format: cell-based; conditions: SK-MEL-2, cell line F = Melanoma (SKMEL-2), NCI testing
Procedure: as §1

[8] = test system: Ovarian cancer (OVCAR8); test: Growth inhibition of human tumor cell lines: Ovarian cancer (OVCAR8); format: cell-based; conditions: OVCAR-8, cell line G = Ovarian cancer (OVCAR8), NCI testing
Procedure: as §1

[9] = test system: Renal cancer (CAKI1); test: Growth inhibition of human tumor cell lines: Renal cancer (CAKI1); format: cell-based; conditions: CAKI-1, cell line H = Renal cancer (CAKI1), NCI testing
Procedure: as §1

[10] = test system: tubulin; test: Inhibition of microtubule assembly; format: biochemical, calf; conditions: preincubated 1 h at 37° C.
Procedure: Compounds were evaluated for their ability to inhibit tubulin assembly into microtubules by comparing the extent of cold-reversible assembly in the presence of each test compound with controls lacking the test compound. Tubulin was isolated from calf brain tissue by two cycles of assembly/disassembly as described by Vallee, R. B. in Methods in Enzymology, vol. 134, pp. 89-104. Assay mixtures contained 1 mg/ml of purified tubulin in 1 M sodium glutamate, pH 6.6, 1 millimolar (mM) MgCl2, and the test compound, which was added as a solution in DMSO. The final concentration of DMSO in each assay was 2% (v/v). Assay mixtures were preincubated at 37° C. for 1 h, then chilled on ice for 5 min. Microtubule assembly was initiated by addition of guanosine triphosphate (0.1 mM), and incubation at 37° C. Assembly was followed turbidimetrically at 350 nm for 20 minutes (min) using a temperature-controlled cell in a Cary 2200 spectrophotometer. Since microtubules undergo depolymerization at 0° C., assembly was confirmed by measuring the reduction in turbidity following incubation for 30 min at 0° C. The difference in absorbance before and after incubation for 30 min at 0° C. (ΔA350) represents the extent of microtubule assembly. Inhibition of assembly was calculated by subtracting the (ΔA350) values for treatments with test compounds from the (ΔA350) for controls without test compound, and expressing this difference as a percentage of the (ΔA350) value for the control. Results including test compound number, test compound concentration in micromoles per liter (μM) and percent inhibition are set forth in Table 11.

`CCC(C)(NC(=O)c1ccc(NC(=O)OC)cc1)C(=O)CCl` (centres unmarked) [Compound 1] showed an inhibition at 2 µM ([1]; 48 hours) of 92%.

For `CCC(C)(NC(=O)c1cc(Cl)cc(C#N)c1)C(=O)CCl` (centres unmarked) [Compound 3], the inhibition at 2 µM ([1]; 48 hours) was 94%.

With `CCC(C)(NC(=O)c1cc(Cl)cc(C=NOC)c1)C(=O)CCl` (centres unmarked) [Compound 4] the inhibition at 2 µM ([1]; 48 hours) was 95%, the GI50 [2] was 0.59 µM and the GI50 [3] was 2.14 µM. For the same compound, the GI50 [4] was 1.54 µM, the GI50 [5] was 2.58 µM and the GI50 [6] was 2.31 µM. It also gave a GI50 [7] of 3.24 µM, a GI50 [8] of 2.62 µM and a GI50 [9] of 3.07 µM. For the same compound, the “Percent inhibition of microtubule assembly” value (“Percent inhibition” for short) ([10]; 50 μM) was 89.8%.

`CCC(C)(NC(=O)c1cc(C)cc(Br)c1)C(=O)CCl` (centres unmarked) [Compound 5] was tested, and the inhibition at 2 µM ([1]; 48 hours) was 91% and the “Percent inhibition” value ([10]; 50 μM) was 88.7%.

`CCCC(NC(=O)c1cc(Cl)cc(Cl)c1)C(=O)C(Br)Br` (centres unmarked) [Compound 6] gave an inhibition at 2 µM ([1]; 48 hours) of 75%.

Compound `CCC(C)(NC(=O)c1cccc(Br)c1)C(=O)C(Br)Br` (centres unmarked) [Compound 7] has an inhibition at 2 µM ([1]; 48 hours) of 92%, a GI50 [2] of 2.32 µM and a GI50 [3] of 1.08 µM. It also gave a GI50 [4] of 1.83 µM, a GI50 [5] of 3.39 µM and a GI50 [6] of 2.29 µM. The GI50 [7] was 2.74 µM, the GI50 [8] was 3.01 µM and the GI50 [9] was 2.82 µM. For the same compound, the “Percent inhibition” value ([10]; 5 μM) was 97.0%.

`CC(C)C(C)(NC(=O)c1cc(Cl)cc(Cl)c1)C(=O)C(Br)Br` (centres unmarked) [Compound 8] gave an inhibition at 2 µM ([1]; 48 hours) of 83%.

Work on `CC(C)CC(C)(NC(=O)c1cc(Cl)cc(Cl)c1)C(=O)C(Br)Br` (centres unmarked) [Compound 9] yielded an inhibition at 2 µM ([1]; 48 hours) of 97%.

With `CCCCCC(C)(NC(=O)c1cc(Cl)cc(Cl)c1)C(=O)C(Br)Br` (centres unmarked) [Compound 10] the inhibition at 2 µM ([1]; 48 hours) was 96%.

`CCCC(C)(NC(=O)c1cc(Cl)cc(Cl)c1)C(=O)C(Br)Br` (centres unmarked) [Compound 11] was tested, and the inhibition at 2 µM ([1]; 48 hours) was 88%.

`CCC(CC)(NC(=O)c1cc(Cl)cc(Cl)c1)C(=O)C(Br)Br` [Compound 12] gave an inhibition at 2 µM ([1]; 48 hours) of 85%.

`CCC(C)(NC(=O)c1cc(Cl)cc(Cl)c1)C(=O)C(Br)Br` (centres unmarked) [Compound 13] showed an inhibition at 2 µM ([1]; 48 hours) of 98%, a GI50 [2] of 0.28 µM and a GI50 [3] of 0.28 µM. It also gave a GI50 [4] of 0.24 µM, a GI50 [5] of 1.39 µM and a GI50 [6] of 1.9 µM. For the same compound, the GI50 [7] was 2.08 µM, the GI50 [8] was 1.82 µM and the GI50 [9] was 1.92 µM. For the same compound, the “Percent inhibition” value ([10]; 5 μM) was 90.9%.

`CC(C)(NC(=O)c1cc(Cl)cc(Cl)c1)C(=O)C(Cl)Br` (centres unmarked) [Compound 15] gave an inhibition at 2 µM ([1]; 48 hours) of 90%, a GI50 [2] of 2.85 µM and a GI50 [3] of 1.29 µM. It also gave a GI50 [4] of 6.65 µM, a GI50 [5] of 10.4 µM and a GI50 [6] of 10.8 µM. The GI50 [7] was 16.6 µM, the GI50 [8] was 12.1 µM and the GI50 [9] was 10.8 µM. The “Percent inhibition” value ([10]; 50 μM) was 94.6%.

`CC(C)(NC(=O)c1ccccc1)C(=O)C(Br)Br` [Compound 16] was tested, and the inhibition at 2 µM ([1]; 48 hours) was 98%.

With `CCC(C)(NC(=O)c1cc(Cl)c(N)c(C=NOC)c1)C(=O)CCl` (centres unmarked) [Compound 18, 4-amino-3-chloro-5-methoxyiminomethyl-N-(3-chloro-1-ethyl-1-methyl-2-oxopropyl)benzamide] the inhibition at 2 µM ([1]; 48 hours) was 94%.

With `CCC(C)(NC(=O)c1cccc(C#N)c1)C(=O)CCl` (centres unmarked) [Compound 20] the inhibition at 4 µM ([1]; 48 hours) was 96%.

In the case of `CCC(C)(NC(=O)c1cc(Br)c(C)c(Br)c1)C(=O)CCl` (centres unmarked) [Compound 21], the inhibition at 4 µM ([1]; 48 hours) is reported as 97%.

Work on `CCC(C)(NC(=O)c1cccc(NC(=O)OC)c1)C(=O)CCl` (centres unmarked) [Compound 22] yielded an inhibition at 10 µM ([1]; 10 micromolar, 48 hours) of 96%.

For `CCC(C)(NC(=O)c1cccc(C=NOC)c1)C(=O)CCl` (centres unmarked) [Compound 24], the inhibition at 10 µM ([1]; 10 micromolar, 48 hours) was 96%.

`CCC(C)(NC(=O)c1cc(C)cc(Cl)c1)C(=O)CCl` (centres unmarked) [Compound 25] was tested, and the inhibition at 10 µM ([1]; 10 micromolar, 48 hours) was 95% and the “Percent inhibition” value ([10]; 50 μM) was 30.9%.

In the case of `CC(C)(NC(=O)c1cc(Cl)cc(Cl)c1)C(=O)CN=C=S` [Compound 27], the inhibition at 10 µM ([1]; 48 h) is reported as 61%.

In the case of `CC(C)(NC(=O)c1cc(Cl)cc(Cl)c1)C(=O)CBr` [Compound 29], the inhibition at 10 µM ([1]; 10 micromolar, 48 hours) is reported as 95%.

`CCC(C)(NC(=O)c1cc(Cl)c(C)c(Br)c1)C(=O)CCl` (centres unmarked) [Compound 30] was tested, and the inhibition at 20 µM ([1]; 48 hours) was 97%.

With `CCC(C)(NC(=O)c1cc(Cl)c(F)c(Cl)c1)C(=O)CCl` (centres unmarked) [Compound 31] the inhibition at 20 µM ([1]; 48 hours) was 97%.

Compound `CCC(C)(NC(=O)c1cc(Cl)c(C)c(Cl)c1)C(=O)CCl` (centres unmarked) [Compound 32] has an inhibition at 20 µM ([1]; 48 hours) of 96%.

With `CCC(C)(NC(=O)c1cc(Cl)c(Cl)c(Cl)c1)C(=O)CCl` (centres unmarked) [Compound 33] the inhibition at 20 µM ([1]; 48 hours) was 94% and the “Percent inhibition” value ([10]; 50 μM) was 12.2%.
